Assay results published in patent US20240366564A1, “Use of Chlorophyll Derivatives for the Treatment of SARS-CoV-2 Infection” (priority 2021, published 2024).

How the values were obtained:
[1] = system: SARS-CoV-2 alpha variant (B.1.1.7 lineage); format: cell-based
[2] = system: SARS-CoV-2 USA-WA1/2020 virus; format: cell-based

C=Cc1c(C)c2cc3nc(c4c5[nH]c(cc6nc(cc1[nH]2)C(C)=C6CC)c(C)c5C(=O)[C@@H]4C(=O)OC)[C@@H](CCC(=O)O)[C@@H]3C [Pheophorbide A]
effect of photoactivation on inhibition of infection [1]: enhanced with photoactivation | inhibition of SARS-CoV-2 infection in culture [1]: significantly inhibits | inhibition of SARS-CoV-2 infection, summary of FIGS. 5-10 [2]: inhibits SARS-CoV-2 infection in a dose-dependent manner
